Consider one compound from ChEMBL document CHEMBL1146188, “Gram-scale synthesis of pinusolide and evaluation of its antileukemic potential” (2006).

The source made the active and inactive calls. The rule behind the calls is not given here.

The test system of test [1] is BJAB. The test can be described thus: Induction of apoptosis of human BJAB cells as measured by DNA fragmentation at 100 uM after 72 hrs. The class given is functional.
The test system of test [2] is Leukemia cell. Put plainly: Induction of apoptosis in ALL cells at 100 uM after 60 hrs. The note with it: Homo sapiens. The class given is functional, cell-based.
The test system of test [3] is BJAB. The test can be described thus: Induction of mitochondrial permeability transition in human BJAB cells after 48 hrs. Format: functional, cell-based.
The subject of test [4] is BJAB. The test can be described thus: Antiproliferative activity against human BJAB cells after 24 hrs. Format: functional.
Test [5] concerns BJAB. Put plainly: Loss of mitochondrial membrane potential in human BJAB cells at 100 uM. Format: functional, cell-based.
The subject of test [6] is Leukemia cell. Put plainly: Induction of apoptosis in AML cells at 100 uM after 60 hrs. Format: functional, cell-based. The following applies: Homo sapiens.
Test [7] has as its system BJAB. Put plainly: Antiproliferative activity against human BJAB cells after 48 hrs. The class given is functional.

For `C=C1CC[C@@H]2[C@](C)(CCC[C@]2(C)C(=O)OC)[C@H]1CCC1=CCOC1=O` [PINUSOLIDE], the Activity was 70% with BJAB [1], “Dose-dependent effect” in the test on BJAB [3], 44% in the test on BJAB [4] and 86% in the test on BJAB [7]. Further, the outcome in the test on Leukemia cell [2], in the test on BJAB [5] and in the test on Leukemia cell [6] was Active.
